Test results taken from patent US8133906B2, “Method of treating amblyopia” (Hermo Pharma Oy, priority 2007, dated 2012).
Entries after “also recorded” stand apart in the source; their conditions may differ.

Experiments:
[1] = tested on: adult rats, visual cortex contralateral to the deprived eye; test: Intracortical infusion of diazepam or vehicle during MD in fluoxetine treated rats, C/I VEP ratio; type: in vivo, rat; settings: cortical diazepam 2 mg/ml during last week of chronic fluoxetine
Procedure: Additional doses of urethane were used to keep the anesthesia level stable throughout the experiment. Body temperature was continuously monitored and maintained at ˜37° C. by a thermostated electric blanket during the experiment. An ECG was continuously monitored. A hole was drilled in the skull, corresponding to the binocular portion of the primary visual cortex (binocular area OclB) contralateral to the deprived eye. After exposure of the brain surface, the dura was removed, and a micropipette (2 MΩ) filled with NaCl (3 M) was inserted into the cortex 5 mm from λ (intersection between sagittal- and lambdoid-sutures). Both eyes were fixed and kept open by means of adjustable metal rings surrounding the external portion of the eye bulb. We measured visual acuity through both eyes using visual evoked potentials (VEPs). During recording through one eye, the other was covered by a black adhesive tape. […] Transient VEPs in response to abrupt contrast reversal (0.5 Hz) were evaluated in the time domain by measuring the peak-to-baseline amplitude and peak latency of the major negative component. Visual stimuli were horizontal sinusoidal gratings of different spatial frequencies and contrast, generated by a VSG2/2 card running custom software and presented on a monitor (20×22 cm; luminance 15 cd m^−2) positioned 20 cm from the rat's eyes and centred on the previously determined receptive fields. […]

[2] = tested on: adult Long-Evans hooded rats, binocular visual cortex contralateral to the deprived eye; test: Ocular dominance plasticity after one week of monocular deprivation (MD) in adult rats, C/I VEP ratio; type: in vivo, rat; settings: fluoxetine alone, without deprivation of one eye
Procedure: Adult Long-Evans hooded rats were used in this study. Animals were group-housed under standard conditions with food and water ad libitum in plexiglass cages (40×30×20 cm) and kept in a 12:12 light/dark cycle.
Adult animals, under treatment, were anesthetized with avertin (1 ml kg^−1) and mounted on a stereotaxic apparatus to be monocularly deprived. Eyelid closure was inspected daily until complete cicatrization; subjects with even minimal spontaneous re-opening were excluded. Great care was taken during the first days after MD to prevent inflammation or infection of the deprived eye through topical application of antibiotic and cortisone.
Additional doses of urethane were used to keep the anesthesia level stable throughout the experiment. Body temperature was continuously monitored and maintained at ˜37° C. by a thermostated electric blanket during the experiment. An ECG was continuously monitored. A hole was drilled in the skull, corresponding to the binocular portion of the primary visual cortex (binocular area OclB) contralateral to the deprived eye. […] We measured visual acuity through both eyes using visual evoked potentials (VEPs). […] Transient VEPs in response to abrupt contrast reversal (0.5 Hz) were evaluated in the time domain by measuring the peak-to-baseline amplitude and peak latency of the major negative component. […]

[3] = tested on: adult amblyopic rats, visual cortex contralateral to the long-term deprived eye; test: VEP recording of visual acuity and binocularity in adult amblyopic rats (long-term MD from P21, reverse suture); type: in vivo, rat; settings: long-term MD from P21, reverse suture last two weeks of 4-week fluoxetine, n=5, control 0.62±0.06, fellow eye 1.06±0.01
Procedure: (§1) This method of administration yields steady-state plasma concentrations of 356±99 ng/ml in rats, which is within the recommended plasma concentration for the treatment of depression in humans (50-450 ng/ml).
To perform analysis of long-term MD, rats were anesthetized with avertin (1 ml kg^−1) and monocularly deprived through eyelid suturing at P21. Eyelid closure was inspected daily until complete cicatrization; subjects with even minimal spontaneous re-opening were excluded. […] The long-term deprived eye was re-opened using thin scissors, while the other eye was sutured shut. […]
Additional doses of urethane were used to keep the anesthesia level stable throughout the experiment. Body temperature was continuously monitored and maintained at ˜37° C. by a thermostated electric blanket during the experiment. An ECG was continuously monitored. […] We measured visual acuity through both eyes using visual evoked potentials (VEPs). […] Transient VEPs in response to abrupt contrast reversal (0.5 Hz) were evaluated in the time domain by measuring the peak-to-baseline amplitude and peak latency of the major negative component. […] Binocularity (ocular dominance) was assessed calculating the contralateral to ipsilateral (C/I) VEP ratio, i.e. the ratio of VEP amplitudes recorded by stimulating the eye respectively contralateral and ipsilateral to the visual cortex where recording is performed.

[4] = humans; cited from earlier work
adult amblyopic rats = test: Behavioral assessment of visual acuity (visual water task) in adult amblyopic rats; type: in vivo, rat; settings: reverse suture, 4-week fluoxetine, n=5
Procedure: as §1
To perform analysis of long-term MD, rats were anesthetized with avertin (1 ml kg^−1) and monocularly deprived through eyelid suturing at P21. Eyelid closure was inspected daily until complete cicatrization; subjects with even minimal spontaneous re-opening were excluded. […] The long-term deprived eye was re-opened using thin scissors, while the other eye was sutured shut. Great care was taken during the first days after RS to prevent inflammation or infection in the previously deprived eye through topical application of antibiotic and cortisone.
Then, after RS, during the third week of treatment (P90), we started measuring visual acuity of the long term deprived eye. […] To measure visual acuity, we used the visual water task (Prusky et al., 2000) which trains animals to first distinguish a low (0.1 cycles per degree (c deg^−1)) spatial frequency vertical grating from grey, and then tests the limit of this ability at higher spatial frequencies. The apparatus consists of a trapezoidal-shaped pool with two panels placed side by side at one end. […] A trial is recorded as incorrect if an animal enters the arm without the platform. […]

[5] = tested on: extracellular GABA and glutamate in visual cortex; test: In vivo brain microdialysis in the visual cortex with HPLC of GABA and glutamate; design: species or system rat; settings: adult rats, repeated fluoxetine
Procedure: After the end of repeated treatment with fluoxetine, the in vivo sampling of dialysates was performed inserting a microdialysis probe into the guide shaft previously implanted. A detailed description of the procedure followed is reported in (Hernandez et al., 1986). Briefly, the probe was made of concentric fused-silica polyimide covered capillary tube into a 26 gauge stainless steel tube with a 1 mm long tip of exposed cellulose membrane (6000 MW cut-off). It was connected to a dialysis system pumping an artificial CSF (142 mM NaCl, 3.9 mM KCl, 1.2 mM CaCl2, 1 mM MgCl2, 1.35 mM Na2HPO4, pH 7.4) at a flow rate of 1 μl min^−1. The probe protruded 1 mm from the tip of the guide shaft. Six hours after insertion of the probe (stabilization period), sampling was carried out.
After brain microdialysis, rats were sacrificed with an overdose of chloral hydrate and perfused intracardially as described above. Brains were post-fixed for two hours before being immersed in 30% sucrose in PBS. […]
Analysis of γ-aminobutyric acid (GABA) and glutamate (GLU) basal levels from microdialysates was performed using High Performance Liquid Chromatography (HPLC) coupled to a fluorimetric detection system. […] Homoserine was used as internal standard and amino-acid concentrations were calculated from a linear standard curve built upon known concentrations of injected amino acids. […]

[6] = tested on: adult rat visual cortex slices; test: LTP recordings in visual cortex slices after theta-burst stimulation from the white matter (WM-LTP); settings: slices from fluoxetine treated adult rats (P100), measured 20-30 min following TBS
Excerpt: Slices (0.35 mm thick) of visual cortex were obtained using a Leica (Nussloch, Germany) vibratome. […] The recording solution was composed as the cutting solution with the following differences (in mM): 130 NaCl, 5.0 dextrose, 1.0 MgCl2, 2.0 CaCl2, 0.01 glycine, no kynurenate, no sucrose. Electrical stimulation (100 μsec duration) was delivered with a bipolar concentric stimulating electrode (FHC, St. Bowdoinham, Me.) placed at the border of the white matter and layer VI. Field potentials in layers II-III were recorded by a micropipette (1-3MΩ) filled with NaCl (3 M). Baseline responses were obtained every 30 sec with a stimulation intensity that yielded a half-maximal response. After achievement of a 15 min stable baseline (field potential amplitude within 15% of change and with no evident increasing or decreasing trends), θ burst stimulation (TBS) was delivered. Postsynaptic field potentials after TBS were recorded every 30 sec during 30 min.

BDNF = BDNF protein expression by ELISA after repeated fluoxetine administration; type: in vivo, rat; settings: adult rats
Procedure: as §1
Proteins from fresh visual cortex and hippocampus were initially extracted, respectively, using lysis buffer (1% Triton X-100, 10% Glycerol, 20 mM TrisHCl pH 7.5, 150 mM NaCl, 10 mM EDTA, 0.1 mM Na3VO4, 1¼ g/ml Leupeptin, 1¼ g/ml Aprotinin, 1 mM PMSF). The total concentration of samples was quantified with the protein assay kit (Bio-Rad, Hercules, Calif.) using a BSA based standard curve. Afterwards, BDNF expression was assessed loading 100 μg of total proteins in triplicate in a standard ELISA plate together with a standard curve and processed as indicated in the manufacturer protocol (BDNF, Promega).

| Compound | Effect on OD shift induced by MD in fluoxetine treated rats [1] | Responsiveness of either eye to visual stimulation [2] | Visual acuity of the formerly deprived eye (VEP) [3] [c deg^−1] | Recommended (therapeutic) plasma concentration for the treatment of depression [4] [ng/mL] | Visual acuity of the formerly deprived eye (behavioral, visual water box task) (adult amblyopic rats) [c deg^−1] | Extracellular glutamate (GLU) levels vs controls ([5]; data not shown) | Basal extracellular levels of GABA in visual cortex vs controls ([5]; n=5, p<0.02) | WM-LTP of layer II-III field potentials after theta-burst stimulation vs controls [6] | BDNF protein expression in hippocampus vs controls (BDNF; t-test p<0.01 n=6) | BDNF protein expression in visual cortex vs controls (BDNF; t-test p<0.04 n=6) |
| --- | --- | --- | --- | --- | --- | --- | --- | --- | --- | --- |
| CN1C(=O)CN=C(c2ccccc2)c2cc(Cl)ccc21 [diazepam] | prevented the restoration of OD plasticity; also recorded: totally prevented |  |  |  |  |  |  |  |  |  |
| CNCCC(Oc1ccc(C(F)(F)F)cc1)c1ccccc1 (stereo not shown) [fluoxetine] |  | did not produce any changes | 0.97±0.04 | 50 to 450 | 0.88±0.02 | No difference | significantly lower; also recorded: significant reduction | significantly enhanced; also recorded: fully restored | significantly higher; also recorded: similarly enhanced | significantly higher |
